Converted amounts (≈) assume the structure as drawn.
What was measured:
Staphylococcus aureus [1] = test: Antibacterial activity against Staphylococcus aureus KCTC 209 after 24 hrs by broth microdilution method; type: functional; conditions: KCTC 209, 24 h
Staphylococcus aureus [2] = test: Antibacterial activity against methicillin-resistant Staphylococcus aureus CCARM 3506 after 24 hrs by broth microdilution method; type: functional; conditions: CCARM 3506, 24 h
Staphylococcus aureus [3] = test: Antibacterial activity against Staphylococcus aureus KCTC 503 after 24 hrs by broth microdilution method; type: functional; conditions: KCTC 503, 24 h
Escherichia coli = test: Antibacterial activity against Escherichia coli CCARM 1356 after 24 hrs by broth microdilution method; type: functional; conditions: CCARM 1356, 24 h
Staphylococcus aureus [4] = test: Antibacterial activity against quinolone-resistant Staphylococcus aureus CCARM 3519 after 24 hrs by broth microdilution method; type: functional; conditions: CCARM 3519, 24 h
Staphylococcus aureus [5] = test: Antibacterial activity against quinolone-resistant Staphylococcus aureus CCARM 3505 after 24 hrs by broth microdilution method; type: functional; conditions: CCARM 3505, 24 h
Staphylococcus aureus [6] = test: Antibacterial activity against methicillin-resistant Staphylococcus aureus CCARM 3167 after 24 hrs by broth microdilution method; type: functional; conditions: CCARM 3167, 24 h
Staphylococcus aureus [7] = test: Antibacterial activity against Staphylococcus aureus RN4220 after 24 hrs by broth microdilution method; type: functional; conditions: RN4220, 24 h
HeLa = test: Cytotoxicity against human HeLa cells after 48 hrs by MTT assay; type: cell-based

Work on O=C(O)[C@H](Cc1ccccc1)N1C(=O)/C(=C/c2cc3cc(OCc4cccc(F)c4)ccc3nc2Cl)SC1=S yielded an MIC (Staphylococcus aureus [1]) of 64 µg/mL (≈ 111 µM), an MIC (Staphylococcus aureus [2]) of 1 µg/mL (≈ 1.73 µM) and an MIC (Staphylococcus aureus [3]) of 4 µg/mL (≈ 6.91 µM). For the same compound, the MIC (Escherichia coli) was greater than 64 µg/mL, the MIC (Staphylococcus aureus [4]) was 2 µg/mL (≈ 3.45 µM) and the MIC (Staphylococcus aureus [5]) was 1 µg/mL (≈ 1.73 µM). It also gave an MIC (Staphylococcus aureus [6]) of 2 µg/mL (≈ 3.45 µM) and an MIC (Staphylococcus aureus [7]) of 4 µg/mL (≈ 6.91 µM).

In the case of COc1c(N2CCNC(C)C2)c(F)cc2c(=O)c(C(=O)O)cn(C3CC3)c12 (configuration not stated) [GATIFLOXACIN], the MIC (Staphylococcus aureus [1]) was 2 µg/mL (≈ 5.33 µM), the MIC (Staphylococcus aureus [2]) was 1 µg/mL (≈ 2.66 µM) and the MIC (Staphylococcus aureus [3]) was 4 µg/mL (≈ 10.7 µM). For the same compound, the MIC (Escherichia coli) was 16 µg/mL (≈ 42.6 µM), the MIC (Staphylococcus aureus [4]) was 4 µg/mL (≈ 10.7 µM) and the MIC (Staphylococcus aureus [5]) was 8 µg/mL (≈ 21.3 µM). The MIC (Staphylococcus aureus [6]) was 2 µg/mL (≈ 5.33 µM) and the MIC (Staphylococcus aureus [7]) was 0.25 µg/mL (≈ 0.666 µM).

Compound CCC(C)[C@@H](C(=O)O)N1C(=O)/C(=C/c2cc3cc(OCc4cccc(F)c4)ccc3nc2Cl)SC1=S (some centres not stated) has an MIC (Staphylococcus aureus [1]) of 32 µg/mL (≈ 58.7 µM), an MIC (Staphylococcus aureus [2]) of 1 µg/mL (≈ 1.83 µM) and an MIC (Staphylococcus aureus [3]) of 8 µg/mL (≈ 14.7 µM). The MIC (Escherichia coli) was greater than 64 µg/mL, the MIC (Staphylococcus aureus [4]) was 2 µg/mL (≈ 3.67 µM) and the MIC (Staphylococcus aureus [5]) was 2 µg/mL (≈ 3.67 µM). The MIC (Staphylococcus aureus [6]) was 2 µg/mL (≈ 3.67 µM) and the MIC (Staphylococcus aureus [7]) was 2 µg/mL (≈ 3.67 µM).

Compound O=C(O)[C@H](Cc1ccccc1)N1C(=O)/C(=C/c2cc3cc(OCc4ccc(F)cc4)ccc3nc2Cl)SC1=S has an MIC (Staphylococcus aureus [1]) of 32 µg/mL (≈ 55.3 µM), an MIC (Staphylococcus aureus [2]) of 2 µg/mL (≈ 3.45 µM) and an MIC (Staphylococcus aureus [3]) of 4 µg/mL (≈ 6.91 µM). For the same compound, the MIC (Escherichia coli) was greater than 64 µg/mL, the MIC (Staphylococcus aureus [4]) was 4 µg/mL (≈ 6.91 µM) and the MIC (Staphylococcus aureus [5]) was 2 µg/mL (≈ 3.45 µM). For the same compound, the MIC (Staphylococcus aureus [6]) was 2 µg/mL (≈ 3.45 µM) and the MIC (Staphylococcus aureus [7]) was 4 µg/mL (≈ 6.91 µM).

Compound O=C(O)[C@H](Cc1ccccc1)N1C(=O)/C(=C/c2cc3cc(OCc4ccccc4Br)ccc3nc2Cl)SC1=S has an MIC (Staphylococcus aureus [1]) of 8 µg/mL (≈ 12.5 µM), an MIC (Staphylococcus aureus [2]) of 2 µg/mL (≈ 3.13 µM) and an MIC (Staphylococcus aureus [3]) of 8 µg/mL (≈ 12.5 µM). The MIC (Escherichia coli) was greater than 64 µg/mL, the MIC (Staphylococcus aureus [4]) was 2 µg/mL (≈ 3.13 µM) and the MIC (Staphylococcus aureus [5]) was 2 µg/mL (≈ 3.13 µM). It also gave an MIC (Staphylococcus aureus [6]) of 2 µg/mL (≈ 3.13 µM) and an MIC (Staphylococcus aureus [7]) of 4 µg/mL (≈ 6.25 µM).

CCC(C)[C@@H](C(=O)O)N1C(=O)/C(=C/c2cc3cc(OCc4ccccc4Cl)ccc3nc2Cl)SC1=S (some centres not stated) gave an MIC (Staphylococcus aureus [1]) of 64 µg/mL (≈ 114 µM), an MIC (Staphylococcus aureus [2]) of 1 µg/mL (≈ 1.78 µM) and an MIC (Staphylococcus aureus [3]) of 8 µg/mL (≈ 14.2 µM). For the same compound, the MIC (Escherichia coli) was greater than 64 µg/mL, the MIC (Staphylococcus aureus [4]) was 2 µg/mL (≈ 3.56 µM) and the MIC (Staphylococcus aureus [5]) was 2 µg/mL (≈ 3.56 µM). It also gave an MIC (Staphylococcus aureus [6]) of 2 µg/mL (≈ 3.56 µM) and an MIC (Staphylococcus aureus [7]) of 4 µg/mL (≈ 7.12 µM).

CCC(C)[C@@H](C(=O)O)N1C(=O)/C(=C/c2cc3cc(OCc4ccc(C)cc4)ccc3nc2Cl)SC1=S (some centres not stated) gave an MIC (Staphylococcus aureus [1]) of 4 µg/mL (≈ 7.39 µM), an MIC (Staphylococcus aureus [2]) of 2 µg/mL (≈ 3.7 µM) and an MIC (Staphylococcus aureus [3]) of 4 µg/mL (≈ 7.39 µM). It also gave an MIC (Escherichia coli) greater than 64 µg/mL, an MIC (Staphylococcus aureus [4]) of 2 µg/mL (≈ 3.7 µM) and an IC50 (HeLa) of 9.09 µg/mL (≈ 16.8 µM). It also gave an MIC (Staphylococcus aureus [5]) of 2 µg/mL (≈ 3.7 µM), an MIC (Staphylococcus aureus [6]) of 2 µg/mL (≈ 3.7 µM) and an MIC (Staphylococcus aureus [7]) of 2 µg/mL (≈ 3.7 µM).

With O=C(O)[C@H](Cc1ccccc1)N1C(=O)/C(=C/c2cc3cc(OCc4ccccc4Cl)ccc3nc2Cl)SC1=S the MIC (Staphylococcus aureus [1]) was 64 µg/mL (≈ 107 µM), the MIC (Staphylococcus aureus [2]) was 2 µg/mL (≈ 3.36 µM) and the MIC (Staphylococcus aureus [3]) was 8 µg/mL (≈ 13.4 µM). It also gave an MIC (Escherichia coli) greater than 64 µg/mL, an MIC (Staphylococcus aureus [4]) of 2 µg/mL (≈ 3.36 µM) and an MIC (Staphylococcus aureus [5]) of 2 µg/mL (≈ 3.36 µM). It also gave an MIC (Staphylococcus aureus [6]) of 2 µg/mL (≈ 3.36 µM) and an MIC (Staphylococcus aureus [7]) of 4 µg/mL (≈ 6.72 µM).

For CC(C)C[C@@H](C(=O)O)N1C(=O)/C(=C/c2cc3cc(OCc4ccc(F)cc4)ccc3nc2Cl)SC1=S, the MIC (Staphylococcus aureus [1]) was 8 µg/mL (≈ 14.7 µM), the MIC (Staphylococcus aureus [2]) was 2 µg/mL (≈ 3.67 µM) and the MIC (Staphylococcus aureus [3]) was 8 µg/mL (≈ 14.7 µM). For the same compound, the MIC (Escherichia coli) was greater than 64 µg/mL, the MIC (Staphylococcus aureus [4]) was 1 µg/mL (≈ 1.83 µM) and the MIC (Staphylococcus aureus [5]) was 2 µg/mL (≈ 3.67 µM). The MIC (Staphylococcus aureus [6]) was 2 µg/mL (≈ 3.67 µM) and the MIC (Staphylococcus aureus [7]) was 2 µg/mL (≈ 3.67 µM).

Work on CCC(C)[C@@H](C(=O)O)N1C(=O)/C(=C/c2cc3cc(OCc4ccc(Cl)cc4)ccc3nc2Cl)SC1=S (some centres not stated) yielded an MIC (Staphylococcus aureus [1]) of 8 µg/mL (≈ 14.2 µM), an MIC (Staphylococcus aureus [2]) of 1 µg/mL (≈ 1.78 µM) and an MIC (Staphylococcus aureus [3]) of 4 µg/mL (≈ 7.12 µM). For the same compound, the MIC (Escherichia coli) was greater than 64 µg/mL, the MIC (Staphylococcus aureus [4]) was 2 µg/mL (≈ 3.56 µM) and the MIC (Staphylococcus aureus [5]) was 2 µg/mL (≈ 3.56 µM). It also gave an MIC (Staphylococcus aureus [6]) of 1 µg/mL (≈ 1.78 µM) and an MIC (Staphylococcus aureus [7]) of 2 µg/mL (≈ 3.56 µM).

O=C(O)[C@H](Cc1ccccc1)N1C(=O)/C(=C/c2cc3cc(OCc4ccc(Cl)cc4)ccc3nc2Cl)SC1=S gave an MIC (Staphylococcus aureus [1]) of 8 µg/mL (≈ 13.4 µM), an MIC (Staphylococcus aureus [2]) of 2 µg/mL (≈ 3.36 µM) and an MIC (Staphylococcus aureus [3]) of 4 µg/mL (≈ 6.72 µM). For the same compound, the MIC (Escherichia coli) was greater than 64 µg/mL, the MIC (Staphylococcus aureus [4]) was 2 µg/mL (≈ 3.36 µM) and the MIC (Staphylococcus aureus [5]) was 2 µg/mL (≈ 3.36 µM). The MIC (Staphylococcus aureus [6]) was 2 µg/mL (≈ 3.36 µM) and the MIC (Staphylococcus aureus [7]) was 4 µg/mL (≈ 6.72 µM).

Compound CCn1cc(C(=O)O)c(=O)c2cc(F)c(N3CCNCC3)cc21 [NORFLOXACIN] has an MIC (Staphylococcus aureus [1]) of 2 µg/mL (≈ 6.26 µM), an MIC (Staphylococcus aureus [2]) of 4 µg/mL (≈ 12.5 µM) and an MIC (Staphylococcus aureus [3]) of 2 µg/mL (≈ 6.26 µM). The MIC (Escherichia coli) was 16 µg/mL (≈ 50.1 µM), the MIC (Staphylococcus aureus [4]) was greater than 64 µg/mL and the MIC (Staphylococcus aureus [5]) was greater than 64 µg/mL. It also gave an MIC (Staphylococcus aureus [6]) of 8 µg/mL (≈ 25.1 µM) and an MIC (Staphylococcus aureus [7]) of 2 µg/mL (≈ 6.26 µM).

From ChEMBL document CHEMBL2401670, “Synthesis and biological evaluation of rhodanine derivatives bearing a quinoline moiety as potent antimicrobial agents” (Bioorg Med Chem Lett, 2013)
